Laboratory results as given in US9439961B2, “Pharmaceutical composition for treating ischemic events” (Niigata University, priority 2009, dated 2016).

Tests used:
[1] = system: cerebral infarction rat model; experiment: Cerebral infarction rat model (thrombus injection): infarct and edema volume of TTC-stained cerebral coronal section; format: in vivo, Sprague-Dawley rats
Excerpt: Sprague-Dawley rats (male, 8 weeks old, obtained from Charles River Laboratories Japan, Inc.) were used to produce cerebral infarction rat models.
(§1) In the present examples, a cerebral infarction rat model shown in FIG. 1B was produced in order to realize a state where cerebral hemorrhage concomitantly occurs as a result of administration of a thrombolytic agent after the therapeutic time window of the thrombolytic therapy. A thrombus was formed by coagulating rat's autologous blood and thrombin as a gel in a polyethylene tube catheter having a diameter of 0.35 mm (PE-50, product of Becton, Dickinson and Company). The formed thrombus was left to stand overnight and then cut to have a length of 1 mm Using the catheter, the thrombus was injected from the external carotid artery (ECA) 1 to the middle cerebral artery (MCA) 2 of the rat under anesthesia with halothane at 1% by mass to 1.5% by mass. Thereafter, the thus-treated rat was measured for cerebral blood flow (CBF) using a laser Doppler flowmetry (AFL21, product of ADVANCE Co., Ltd., Tokyo) before and 30 min or 24 hours after injection of the thrombus.
In the thrombolytic therapy for the cerebral infarction rat models, t-PA serving as a thrombolytic agent (alteplase, product of Mitsubishi Tanabe Pharma Corporation) was injected for 30 min to the femoral vein of each cerebral infarction rat model 1 hour or 4 hours after the injection of the thrombus (10 mg/kg, 10% bolus administration and 90% drip infusion).
Twenty-four hours after the injection of the thrombus, halothane was excessively administered to the rats for euthanasia which were then perfused with PBS, to thereby prepare an unfixed cerebral coronal section.
The cerebral coronal section was stained with TTC at 37° C. for 15 min in PBS (pH 7.4) containing a triphenyltetrazolium salt (TTC) at 2% by mass, and then scanned with a scanner (CanoScan™, product of Canon Co.).
The cerebral infarction and the volume of edema were calculated according to Swanson, R. A., et al. (J. Cereb. Blood Flow Metab. (1990) 10:290-293).
The combined administration of the t-PA and the anti-VEGF antibody was performed as described in Example 2. The effects of the combined administration of the t-PA and the anti-VEGF antibody four hours after the onset of cerebral infarction induced by injection of the thrombus were evaluated by measuring the cerebral infarct volume, edema volume, cerebral hemorrhage volume, and motor function scale of the TTC-stained cerebral coronal section prepared 24 hours after the onset of cerebral infarction induced by injection of the thrombus.
The cerebral infarct volume and the edema volume of the TTC-stained cerebral coronal section were calculated according to Swanson, R. A., et al. (J. Cereb. Blood Flow Metab. (1990) 10:290-293). The statistical significance was validated by ANOVA (analysis of variance), and post hoc comparisons were performed by the Tukey method.

[2] = system: cerebral infarction rat model; experiment: Cerebral hemorrhage volume (hemoglobin concentration, spectrophotometer) in cerebral infarction rat model; format: in vivo, Sprague-Dawley rats; conditions: SU1498 20 mg/kg in DMSO single bolus with t-PA four hours after onset; 24 h after onset; vs t-PA and DMSO; P=0.005 (FIG. 5C)
Excerpt: as §1, with “The formed thrombus was left to stand overnight and then cut to have a length of 1 mm Using the catheter, the thrombus was injected from the external carotid artery (ECA) 1 to the middle cerebral artery (MCA) 2 of the rat under anesthesia with halothane at 1% by mass to 1.5% by mass.” left out, “thrombus. […]” for “thrombus.”
The combined administration of the t-PA and the anti-VEGF antibody was performed as described in Example 2. The effects of the combined administration of the t-PA and the anti-VEGF antibody four hours after the onset of cerebral infarction induced by injection of the thrombus were evaluated by measuring the cerebral infarct volume, edema volume, cerebral hemorrhage volume, and motor function scale of the TTC-stained cerebral coronal section prepared 24 hours after the onset of cerebral infarction induced by injection of the thrombus. […]

[3] = system: cerebral infarction rat model; experiment: Motor function scale (5 grades) in cerebral infarction rat model; format: in vivo, Sprague-Dawley rats; conditions: 24 h after onset
VEGF = experiment: Western blotting of VEGF expression in cerebral infarction rat model; format: in vivo; conditions: t-PA (with control antibody) four hours after onset of cerebral infarction (FIG. 3)
Experimental: In order to suppress or reduce concomitantly occurring cerebral hemorrhage and cerebral infarction exacerbation accompanied with the administration of the t-PA after an acute stage of cerebral infarction in human, 100 μg of rabbit anti-rat VEGF antibody IgG (RB-222, product of Lab Vision-NeoMarkers, hereinafter “anti-VEGF antibody”) was bolus administered together with the t-PA. In the control experiment, 100 μg of rabbit anti-human IgG (R5G10-048, product of OEM Concepts, hereinafter “control antibody”) was bolus administered together with the t-PA.
Using the total cell extract as a sample, western blotting was performed according to the method described in Shimohata, T., et al. (J. Cereb. Blood Flow Metab. (2007) 27:1463-1475).
The VEGF was detected using anti-VEGF antibody (SC-152, product of Santa Cruz Biotechnologies, dilution ratio: 1:200) as a primary antibody, and peroxidase-conjugated anti-rabbit IgG antibody (dilution ratio: 1:10,000) as a secondary antibody.
Also, in order to confirm that the amounts of the protein applied were uniform in all the samples, β-actin was detected by allowing anti-β-actin (SC-1616, product of Santa Cruz Biotechnologies, dilution ratio: 1:2,000) and the above secondary antibody to react on the blotting membrane from which the primary and secondary antibodies had been removed. […]

[4] = t-PA 10 mg/kg i.v. four hours after injection of thrombus, vs t-PA one hour after (FIG. 2C)

Row | Compound | cerebral infarct volume ([1]; SU1498 20 mg/kg in DMSO single bolus with t-PA four hours after onset, 24 h after onset, vs t-PA and DMSO, n=6 (FIG. 5A)) | edema volume ([1]; SU1498 20 mg/kg in DMSO single bolus with t-PA four hours after onset, 24 h after onset, vs t-PA and DMSO, n=6 (FIG. 5B)) | cerebral hemorrhage volume (hemoglobin concentration) [2] | motor function scale (prognosis) ([3]; SU1498 20 mg/kg with t-PA four hours after onset, vs t-PA and DMSO, n=10 (FIG. 5D)) | area where cerebral infarction occurred [1, 4] | hemorrhage in the area where cerebral infarction occurred [1, 4] | area where cerebral infarction occurred ([1]; t-PA 10 mg/kg i.v. one hour after injection of thrombus, section 24 h after, vs animal receiving no t-PA (FIG. 2B)) | expression level of the VEGF (western blot) (VEGF) | motor function scale (prognosis) ([3]; t-PA and control antibody four hours after onset, vs control antibody only (FIG. 4D))
1 | CC(C)c1cc(/C=C(\C#N)C(=O)NCCCc2ccccc2)cc(C(C)C)c1O [SU1498, (E)-3-(3,5-diisopropyl-4-hydroxyphenyl)-2-((3-phenyl-n-propyl)amino-carbonyl)acrylonitrile] | could not reduce | could not reduce | could reduce | better in prognosis |  |  |  |  | 
2 | t-PA: t-PA serving as a thrombolytic agent (alteplase, product of Mitsubishi Tanabe Pharma Corporation) |  |  |  |  | enlargement | considerably observed | smaller | considerably increase | worse in prognosis
